According to ChEMBL document CHEMBL1201861, “Genomics of Drug Sensitity in Cancer screening data, Wellcome Trust Sanger Institute”:

How the values were obtained:
Assay in all cases: cells
Settings in all cases: Homo sapiens
SF-295 = assay type: functional, cell-based;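 note: growth inhibition of SF-295 cells, read out with a cell viability assay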
Description: SANGER: Inhibition of human SF295 cell growth in a cell viability assay.

BFTC-905 = assay type: functional, cell-based
Description: SANGER: Inhibition of human BFTC-905 cell growth in a cell viability assay.

T98G = assay type: functional, cell-based;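 note: growth inhibition of T98G cells, read out by a cell viability assay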
Description: SANGER: Inhibition of human T98G cell growth in a cell viability assay.

G-401 = assay type: functional, cell-based
Description: SANGER: Inhibition of human G-401 cell growth in a cell viability assay.

CAL-72 = assay type: functional, cell-based;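 note: cell viability assay measuring inhibition of proliferation in the CAL-72 cell line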
Description: SANGER: Inhibition of human CAL-72 cell growth in a cell viability assay.

NB7 = assay type: functional, cell-based;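 note: growth inhibition of NB7 cells, read out with a cell viability assay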
Description: SANGER: Inhibition of human NB7 cell growth in a cell viability assay.

SW1463 = assay type: functional, cell-based;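 note: growth inhibition of SW1463 cells, determined with a cell viability assay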
Description: SANGER: Inhibition of human SW1463 cell growth in a cell viability assay.

HCC1806 = assay type: functional, cell-based;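 note: growth inhibition of the cancer cell line, determined with a cell viability assay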
Description: SANGER: Inhibition of human HCC1806 cell growth in a cell viability assay.

SW-620 = assay type: functional, cell-based;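 note: growth inhibition of human SW-620 cells, measured by a cell viability assay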
Description: SANGER: Inhibition of human SW620 cell growth in a cell viability assay.

ABC-1 = assay type: functional, cell-based;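 note: growth inhibition of human ABC-1 cells, read out by a cell viability assay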
Description: SANGER: Inhibition of human ABC-1 cell growth in a cell viability assay.

SK-HEP1 = assay type: functional, cell-based, SK-HEP-1;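 note: cell viability readout used to quantify reduction in proliferation of human SK-HEP-1 cells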
Description: SANGER: Inhibition of human SK-HEP-1 cell growth in a cell viability assay.

CHL-1 = assay type: functional, cell-based;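 note: cell growth inhibition, read out with a cell viability assay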
Description: SANGER: Inhibition of human CHL-1 cell growth in a cell viability assay.

UMC-11 = assay type: functional, cell-based;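 note: growth inhibition of UMC-11 cells, read out with a cell viability assay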
Description: SANGER: Inhibition of human UMC-11 cell growth in a cell viability assay.

EGI-1 = assay type: functional, cell-based;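 note: cell viability readout used to gauge growth inhibition of EGI-1 cells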
Description: SANGER: Inhibition of human EGI-1 cell growth in a cell viability assay.

BCPAP = assay type: functional, cell-based;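 note: growth inhibition of BCPAP cells, read out in a cell viability assay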
Description: SANGER: Inhibition of human BCPAP cell growth in a cell viability assay.

NB12 = assay type: functional, cell-based;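 note: growth inhibition of human NB12 cells, read out by a cell viability assay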
Description: SANGER: Inhibition of human NB12 cell growth in a cell viability assay.

Detroit 562 = assay type: functional, cell-based;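 note: growth inhibition of human Detroit 562 cells, read out by a cell viability assay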
Description: SANGER: Inhibition of human Detroit562 cell growth in a cell viability assay.

RPMI-7951 = assay type: functional, cell-based
Description: SANGER: Inhibition of human RPMI-7951 cell growth in a cell viability assay.

WM-115 = assay type: functional, cell-based
Description: SANGER: Inhibition of human WM-115 cell growth in a cell viability assay.

DoTc2-4510 = assay type: functional, cell-based
LCLC-103H cell line = assay type: functional, cell-based
Description: SANGER: Inhibition of human LCLC-103H cell growth in a cell viability assay.

NCI-H460 = assay type: functional, cell-based;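 note: cell viability assay scoring growth inhibition of human NCI-H460 cells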
Description: SANGER: Inhibition of human NCI-H460 cell growth in a cell viability assay.

LN-405 = assay type: functional, cell-based
Description: SANGER: Inhibition of human LN-405 cell growth in a cell viability assay.

COLO-792 = assay type: functional, cell-based
Description: SANGER: Inhibition of human COLO-792 cell growth in a cell viability assay.

NCI-H520 = assay type: functional, cell-based;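 note: growth inhibition of NCI-H520 cells, measured by a cell viability assay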
Description: SANGER: Inhibition of human NCI-H520 cell growth in a cell viability assay.

A204 = assay type: functional, cell-based;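 note: growth inhibition of human A204 cells, read out with a cell viability assay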
Description: SANGER: Inhibition of human A204 cell growth in a cell viability assay.

CAMA-1 = assay type: functional, cell-based;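 note: growth inhibition of CAMA-1 cells, read out with a cell viability assay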
Description: SANGER: Inhibition of human CAMA-1 cell growth in a cell viability assay.

M059J = assay type: functional, cell-based;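 note: growth inhibition of M059J cells, read out with a cell viability assay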
Description: SANGER: Inhibition of human M059J cell growth in a cell viability assay.

OVCAR-3 = assay type: functional, cell-based;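 note: growth inhibition of human OVCAR-3 cells, determined by a cell viability assay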
Description: SANGER: Inhibition of human OVCAR-3 cell growth in a cell viability assay.

BPH-1 = assay type: functional, cell-based;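 note: cell viability assay measuring growth inhibition of human BPH-1 cells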
Description: SANGER: Inhibition of human BPH-1 cell growth in a cell viability assay.

TCC-SUP = assay type: functional, cell-based;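 note: growth inhibition of TCC-SUP cells, read out with a cell viability assay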
Description: SANGER: Inhibition of human TCCSUP cell growth in a cell viability assay.

SW626 = assay type: functional, cell-based;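 note: growth inhibition of SW626 cells, measured with a cell viability assay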
Description: SANGER: Inhibition of human SW626 cell growth in a cell viability assay.

M14 = assay type: functional, cell-based;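 note: growth inhibition of M14 cells, read out with a cell viability assay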
Description: SANGER: Inhibition of human M14 cell growth in a cell viability assay.

HSC-3 = assay type: functional, cell-based
Description: SANGER: Inhibition of human HSC-3 cell growth in a cell viability assay.

MDA-MB-157 = assay type: functional, cell-based
Description: SANGER: Inhibition of human MDA-MB-157 cell growth in a cell viability assay.

SW48 = assay type: functional, cell-based;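 note: growth inhibition of SW48 cells, read out with a cell viability assay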
Description: SANGER: Inhibition of human SW48 cell growth in a cell viability assay.

GAMG = assay type: functional, cell-based;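 note: cell growth inhibition measured by a viability assay in the GAMG human cell line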
Description: SANGER: Inhibition of human GAMG cell growth in a cell viability assay.

GP5d = assay type: functional, cell-based;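 note: growth inhibition of human GP5d cells, read out with a cell viability assay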
Description: SANGER: Inhibition of human GP5d cell growth in a cell viability assay.

CAL-39 = assay type: functional, cell-based;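 note: cell viability assay measuring growth inhibition of CAL-39 cells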
Description: SANGER: Inhibition of human CAL-39 cell growth in a cell viability assay.

NCI-H1623 = assay type: functional, cell-based;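 note: cell viability assay used as the read-out for growth inhibition of NCI-H1623 cells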
Description: SANGER: Inhibition of human NCI-H1623 cell growth in a cell viability assay.

J82 = assay type: functional, cell-based;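 note: growth inhibition of J82 cells, read out with a cell viability assay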
Description: SANGER: Inhibition of human J82 cell growth in a cell viability assay.

RD = assay type: functional, cell-based
Description: SANGER: Inhibition of human RD cell growth in a cell viability assay.

PANC-08-13 = assay type: functional, cell-based;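 note: cell growth inhibition, measured with a cell viability assay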
Description: SANGER: Inhibition of human PANC-08-13 cell growth in a cell viability assay.

NCI-H1792 = assay type: functional, cell-based;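 note: growth inhibition of human NCI-H1792 cells, read out as cell viability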
Description: SANGER: Inhibition of human NCI-H1792 cell growth in a cell viability assay.

RMG-I = assay type: functional, cell-based;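 note: growth inhibition of human RMG-I cells, read out with a cell viability assay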
Description: SANGER: Inhibition of human RMG-I cell growth in a cell viability assay.

HN = assay type: functional, cell-based
Description: SANGER: Inhibition of human HN cell growth in a cell viability assay.

HuO9 = assay type: functional, cell-based;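 note: growth inhibition of HuO9 cells, read out with a cell viability assay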
Description: SANGER: Inhibition of human HuO9 cell growth in a cell viability assay.

BHT-101 = assay type: functional, cell-based
Description: SANGER: Inhibition of human BHT-101 cell growth in a cell viability assay.

SK-LU-1 = assay type: functional, cell-based;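 note: cell viability assay measuring growth inhibition of human SK-LU-1 cells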
Description: SANGER: Inhibition of human SK-LU-1 cell growth in a cell viability assay.

HuP-T4 = assay type: functional, cell-based;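 note: cell viability assay measuring how much HuP-T4 cell growth is inhibited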
Description: SANGER: Inhibition of human HuP-T4 cell growth in a cell viability assay.

Kasumi 1 = assay type: functional, cell-based;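 note: growth inhibition of human Kasumi-1 cells, read out by a cell viability assay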
Description: SANGER: Inhibition of human KASUMI-1 cell growth in a cell viability assay.

O=c1cc(N2CCOCC2)oc2c(-c3cccc4c3sc3ccccc34)cccc12 gave an IC50 (SF-295) of over 2000 nM, an IC50 (BFTC-905) of over 2000 nM and an IC50 (T98G) of over 2000 nM. For the same compound, the IC50 (G-401) was over 2000 nM, the IC50 (CAL-72) was over 2000 nM and the IC50 (NB7) was 1250 nM. It also gave an IC50 (SW1463) of over 2000 nM, an IC50 (HCC1806) of over 2000 nM and an IC50 (SW-620) of over 2000 nM. The IC50 (ABC-1) was over 2000 nM, the IC50 (SK-HEP1) was over 2000 nM and the IC50 (CHL-1) was 1210 nM. The IC50 (UMC-11) was over 2000 nM, the IC50 (EGI-1) was over 2000 nM and the IC50 (BCPAP) was over 2000 nM. It also gave an IC50 (NB12) of over 2000 nM, an IC50 (Detroit 562) of over 2000 nM and an IC50 (RPMI-7951) of over 2000 nM. For the same compound, the IC50 (WM-115) was over 2000 nM, the IC50 (DoTc2-4510) was over 2000 nM and the IC50 (LCLC-103H cell line) was over 2000 nM. For the same compound, the IC50 (NCI-H460) was over 2000 nM, the IC50 (LN-405) was over 2000 nM and the IC50 (COLO-792) was over 2000 nM. For the same compound, the IC50 (NCI-H520) was over 2000 nM, the IC50 (A204) was over 2000 nM and the IC50 (CAMA-1) was over 2000 nM. For the same compound, the IC50 (M059J) was over 2000 nM, the IC50 (OVCAR-3) was over 2000 nM and the IC50 (BPH-1) was over 2000 nM. For the same compound, the IC50 (TCC-SUP) was over 2000 nM, the IC50 (SW626) was over 2000 nM and the IC50 (M14) was over 2000 nM. For the same compound, the IC50 (HSC-3) was over 2000 nM, the IC50 (MDA-MB-157) was over 2000 nM and the IC50 (SW48) was over 2000 nM. It also gave an IC50 (GAMG) of over 2000 nM, an IC50 (GP5d) of over 2000 nM and an IC50 (CAL-39) of over 2000 nM. The IC50 (NCI-H1623) was over 2000 nM, the IC50 (J82) was over 2000 nM and the IC50 (RD) was over 2000 nM. It also gave an IC50 (PANC-08-13) of over 2000 nM, an IC50 (NCI-H1792) of over 2000 nM and an IC50 (RMG-I) of over 2000 nM. It also gave an IC50 (HN) of over 2000 nM, an IC50 (HuO9) of over 2000 nM and an IC50 (BHT-101) of over 2000 nM. The IC50 (SK-LU-1) was over 2000 nM and the IC50 (HuP-T4) was over 2000 nM.

With CC[C@@]1(O)C(=O)OCc2c1cc1n(c2=O)Cc2cc3ccccc3nc2-1 [CAMPTOTHECIN] the IC50 (SF-295) was 7.91 nM, the IC50 (BFTC-905) was 0.14 nM and the IC50 (T98G) was 27.2 nM. The IC50 (G-401) was 19.2 nM, the IC50 (NB7) was 16.8 nM and the IC50 (SW1463) was 51.7 nM. It also gave an IC50 (HCC1806) of 3.14 nM, an IC50 (SW-620) of 4.08 nM and an IC50 (ABC-1) of 3.47 nM. It also gave an IC50 (SK-HEP1) of 7.25 nM, an IC50 (CHL-1) of 6.09 nM and an IC50 (UMC-11) of over 100 nM. For the same compound, the IC50 (EGI-1) was 25.1 nM, the IC50 (Kasumi 1) was 4.07 nM and the IC50 (BCPAP) was 3.04 nM. The IC50 (NB12) was 44 nM, the IC50 (Detroit 562) was 13.3 nM and the IC50 (RPMI-7951) was 4.75 nM. The IC50 (DoTc2-4510) was 4.03 nM, the IC50 (LCLC-103H cell line) was 20.5 nM and the IC50 (NCI-H460) was 24.1 nM. For the same compound, the IC50 (LN-405) was over 100 nM, the IC50 (A204) was 4.52 nM and the IC50 (CAMA-1) was 87.4 nM. It also gave an IC50 (M059J) of 4.1 nM, an IC50 (OVCAR-3) of over 100 nM and an IC50 (BPH-1) of 2.08 nM. The IC50 (TCC-SUP) was 39 nM, the IC50 (SW626) was 76.9 nM and the IC50 (M14) was 9.95 nM. The IC50 (HSC-3) was 3.02 nM, the IC50 (MDA-MB-157) was 7.57 nM and the IC50 (SW48) was 3.02 nM. It also gave an IC50 (GAMG) of 1.53 nM, an IC50 (GP5d) of 12.5 nM and an IC50 (CAL-39) of 19.2 nM. It also gave an IC50 (NCI-H1623) of 0.748 nM, an IC50 (J82) of 4.72 nM and an IC50 (RD) of 15.7 nM. The IC50 (PANC-08-13) was 44.9 nM, the IC50 (NCI-H1792) was 40.1 nM and the IC50 (HN) was 1.4 nM. It also gave an IC50 (HuO9) of 2.88 nM, an IC50 (BHT-101) of 1.82 nM and an IC50 (SK-LU-1) of 4.71 nM. The IC50 (HuP-T4) was 0.881 nM.

Cn1c(=O)n(-c2ccc(C(C)(C)C#N)cc2)c2c3cc(-c4cnc5ccccc5c4)ccc3ncc21 [DACTOLISIB] gave an IC50 (SF-295) of 18.9 nM, an IC50 (BFTC-905) of 60.7 nM and an IC50 (T98G) of 29.9 nM. For the same compound, the IC50 (G-401) was 40.8 nM, the IC50 (CAL-72) was 293 nM and the IC50 (NB7) was 190 nM. For the same compound, the IC50 (SW1463) was 739 nM, the IC50 (HCC1806) was 168 nM and the IC50 (SW-620) was 50.4 nM. The IC50 (ABC-1) was 420 nM, the IC50 (SK-HEP1) was 46 nM and the IC50 (CHL-1) was 15.5 nM. It also gave an IC50 (UMC-11) of 458 nM, an IC50 (EGI-1) of 16.4 nM and an IC50 (BCPAP) of 18.7 nM. The IC50 (NB12) was 528 nM, the IC50 (Detroit 562) was 102 nM and the IC50 (RPMI-7951) was 19.3 nM. It also gave an IC50 (WM-115) of 68.1 nM, an IC50 (DoTc2-4510) of 1070 nM and an IC50 (LCLC-103H cell line) of 286 nM. For the same compound, the IC50 (NCI-H460) was 81.2 nM, the IC50 (LN-405) was 63.9 nM and the IC50 (COLO-792) was 354 nM. It also gave an IC50 (NCI-H520) of 83.1 nM, an IC50 (A204) of 28.5 nM and an IC50 (CAMA-1) of 9.8 nM. It also gave an IC50 (M059J) of 63.6 nM, an IC50 (OVCAR-3) of 599 nM and an IC50 (BPH-1) of 4.76 nM. It also gave an IC50 (TCC-SUP) of 64.5 nM, an IC50 (SW626) of 176 nM and an IC50 (M14) of 60 nM. It also gave an IC50 (HSC-3) of 12.2 nM, an IC50 (MDA-MB-157) of 35.4 nM and an IC50 (SW48) of 201 nM. It also gave an IC50 (GAMG) of 19.5 nM, an IC50 (GP5d) of 434 nM and an IC50 (CAL-39) of 37.9 nM. It also gave an IC50 (NCI-H1623) of 47.8 nM, an IC50 (J82) of 185 nM and an IC50 (RD) of 75.9 nM. The IC50 (PANC-08-13) was 58 nM, the IC50 (NCI-H1792) was 66.2 nM and the IC50 (RMG-I) was 468 nM. For the same compound, the IC50 (HN) was 5.96 nM, the IC50 (HuO9) was 26.8 nM and the IC50 (BHT-101) was 30 nM. For the same compound, the IC50 (SK-LU-1) was 26.2 nM and the IC50 (HuP-T4) was 127 nM.

Work on CCCS(=O)(=O)Nc1ccc(F)c(C(=O)c2c[nH]c3ncc(Cl)cc23)c1F [PLX-4720] yielded an IC50 (SF-295) of over 10000 nM, an IC50 (BFTC-905) of over 10000 nM and an IC50 (T98G) of over 10000 nM. It also gave an IC50 (G-401) of over 10000 nM, an IC50 (CAL-72) of 6450 nM and an IC50 (NB7) of 6210 nM. It also gave an IC50 (SW1463) of over 10000 nM, an IC50 (HCC1806) of 6820 nM and an IC50 (SW-620) of over 10000 nM. It also gave an IC50 (ABC-1) of over 10000 nM, an IC50 (SK-HEP1) of over 10000 nM and an IC50 (CHL-1) of 5980 nM. For the same compound, the IC50 (UMC-11) was over 10000 nM, the IC50 (EGI-1) was over 10000 nM and the IC50 (BCPAP) was 7220 nM. It also gave an IC50 (NB12) of over 10000 nM, an IC50 (Detroit 562) of over 10000 nM and an IC50 (RPMI-7951) of 5800 nM. For the same compound, the IC50 (WM-115) was 887 nM, the IC50 (DoTc2-4510) was over 10000 nM and the IC50 (LCLC-103H cell line) was over 10000 nM. The IC50 (NCI-H460) was over 10000 nM, the IC50 (LN-405) was over 10000 nM and the IC50 (COLO-792) was over 10000 nM. For the same compound, the IC50 (NCI-H520) was over 10000 nM, the IC50 (A204) was over 10000 nM and the IC50 (CAMA-1) was over 10000 nM. The IC50 (M059J) was over 10000 nM, the IC50 (OVCAR-3) was over 10000 nM and the IC50 (BPH-1) was over 10000 nM. It also gave an IC50 (TCC-SUP) of over 10000 nM, an IC50 (SW626) of over 10000 nM and an IC50 (M14) of 218 nM. The IC50 (HSC-3) was 8070 nM, the IC50 (MDA-MB-157) was over 10000 nM and the IC50 (SW48) was over 10000 nM. For the same compound, the IC50 (GAMG) was over 10000 nM, the IC50 (GP5d) was over 10000 nM and the IC50 (CAL-39) was over 10000 nM. The IC50 (NCI-H1623) was over 10000 nM, the IC50 (J82) was over 10000 nM and the IC50 (RD) was over 10000 nM. For the same compound, the IC50 (PANC-08-13) was over 10000 nM, the IC50 (NCI-H1792) was over 10000 nM and the IC50 (RMG-I) was over 10000 nM. The IC50 (HN) was over 10000 nM, the IC50 (HuO9) was over 10000 nM and the IC50 (BHT-101) was 707 nM. The IC50 (SK-LU-1) was over 10000 nM and the IC50 (HuP-T4) was over 10000 nM.
